Experimental data published in patent publication US7351711B2, “Tricyclic indanyls as integrin inhibitors” (Janssen Pharmaceutical, N.V., priority 2003, dated 2008).
Where two headings read alike, the source gives them in different places.

Key:
Human αvβ3 = molecular target: T1, Human αvβ3 (Homo sapiens, UniProt P05106+P06756); experiment: In vitro solid phase purified αvβ3 binding assay (vitronectin/αvβ3); conditions: for IC50: read-out: Antagonist IC50 Activity αVβ3
T1 construct: purchased Chemicon International Inc., Temecula, Calif
Protocol: In Vitro Solid Phase Purified αvβ3 Binding Assay
(§1) The vitronectin/αvβ3 binding assay methods were derived from Mehta et al. (Biochem J,. 1998, 330, 861). Human αvβ3 (Chemicon International Inc., Temecula, Calif.), at a concentration of 1 μg/ml dissolved in Tris buffer (20 mM Tris, 1 mM CaCl2, 1 mM MgCl2, 10 μM MnCl2, 150 mM NaCl), was immobilized on Immulon 96 well plates (Dynex Technologies, Chantilly, Va.) overnight at 4° C. Plates were washed and treated with blocking buffer (3% BSA in Tris buffer) for 2 h at 37° C. Plates were then rinsed 2 times with assay buffer comprised of Tris buffer. Synthesized compounds were added to wells in duplicate immediately prior to the addition of 2 nM vitronectin (Sigma, St. Louis, Mo.). Following a 3 hour incubation at 37° C., plates were washed 5 times in assay buffer. An anti-human vitronectin IgG rabbit polyclonal antibody (Calbiochem, San Diego, Calif.) was added (1:2000) and plates were incubated for 1 hour at room temperature. VectaStain ABC peroxidase kit reagents (Vector Laboratories, Burlingame, Calif.) employing a biotin labeled anti-rabbit IgG, were utilized for detection of bound antibody. Plates were read at 490 nm on a Molecular Devices (Sunnyvale, Calif.) microplate reader.

human purified αVβ5 = molecular target: T2, human purified αVβ5 (Homo sapiens, UniProt P06756+P18084); experiment: In vitro solid phase purified αvβ5 binding assay (vitronectin/αVβ5); conditions: inhibition of vitronectin binding to immobilized αVβ5; read-out: Antagonist IC50 Activity αVβ5
T2 construct: purchased Chemicon International, Inc
Protocol: as §1
In Vitro Solid Phase Purified αvβ5 Binding Assay
The vitronectin/αVβ5 binding assay method was performed in the same manner as the vitronectin/αVβ3 binding assay of Example 2, with the difference that 1 μg/mL of human purified αVβ5 (Chemicon International, Inc.) was immobilized onto Immulon 96 well plates (Dynex Technologies) instead of αVβ3. All other aspects of the assay including buffers, reagents and incubation times remain unchanged.

T1 sequence (P06756 31-889 limits assumed): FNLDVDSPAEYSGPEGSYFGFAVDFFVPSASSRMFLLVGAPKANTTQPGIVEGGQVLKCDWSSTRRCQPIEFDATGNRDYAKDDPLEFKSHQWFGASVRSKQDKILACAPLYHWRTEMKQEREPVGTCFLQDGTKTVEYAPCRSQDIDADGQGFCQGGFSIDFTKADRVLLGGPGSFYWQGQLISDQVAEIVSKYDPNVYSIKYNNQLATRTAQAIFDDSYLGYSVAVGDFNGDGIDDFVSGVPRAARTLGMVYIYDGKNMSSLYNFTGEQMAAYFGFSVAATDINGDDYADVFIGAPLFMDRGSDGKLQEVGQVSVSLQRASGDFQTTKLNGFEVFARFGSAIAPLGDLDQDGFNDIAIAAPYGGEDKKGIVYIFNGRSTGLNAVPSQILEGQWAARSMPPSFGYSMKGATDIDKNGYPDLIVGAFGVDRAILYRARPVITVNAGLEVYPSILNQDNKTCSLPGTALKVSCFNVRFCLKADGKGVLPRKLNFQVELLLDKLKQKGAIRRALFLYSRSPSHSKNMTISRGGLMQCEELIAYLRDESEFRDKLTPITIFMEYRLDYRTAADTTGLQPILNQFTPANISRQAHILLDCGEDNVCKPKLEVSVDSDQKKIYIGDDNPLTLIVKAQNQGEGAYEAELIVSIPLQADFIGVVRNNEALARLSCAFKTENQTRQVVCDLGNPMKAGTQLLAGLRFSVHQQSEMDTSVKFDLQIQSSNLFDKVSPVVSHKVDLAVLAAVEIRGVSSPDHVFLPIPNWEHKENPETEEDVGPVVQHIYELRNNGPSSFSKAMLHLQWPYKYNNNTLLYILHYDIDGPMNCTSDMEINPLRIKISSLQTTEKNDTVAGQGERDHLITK
T1 sequence (P06756 891-1048 partner limits assumed): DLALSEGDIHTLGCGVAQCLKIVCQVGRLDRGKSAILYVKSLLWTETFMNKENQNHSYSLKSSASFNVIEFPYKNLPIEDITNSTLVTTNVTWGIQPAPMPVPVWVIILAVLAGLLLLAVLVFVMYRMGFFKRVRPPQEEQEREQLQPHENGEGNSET
T1 sequence (P05106 27-788): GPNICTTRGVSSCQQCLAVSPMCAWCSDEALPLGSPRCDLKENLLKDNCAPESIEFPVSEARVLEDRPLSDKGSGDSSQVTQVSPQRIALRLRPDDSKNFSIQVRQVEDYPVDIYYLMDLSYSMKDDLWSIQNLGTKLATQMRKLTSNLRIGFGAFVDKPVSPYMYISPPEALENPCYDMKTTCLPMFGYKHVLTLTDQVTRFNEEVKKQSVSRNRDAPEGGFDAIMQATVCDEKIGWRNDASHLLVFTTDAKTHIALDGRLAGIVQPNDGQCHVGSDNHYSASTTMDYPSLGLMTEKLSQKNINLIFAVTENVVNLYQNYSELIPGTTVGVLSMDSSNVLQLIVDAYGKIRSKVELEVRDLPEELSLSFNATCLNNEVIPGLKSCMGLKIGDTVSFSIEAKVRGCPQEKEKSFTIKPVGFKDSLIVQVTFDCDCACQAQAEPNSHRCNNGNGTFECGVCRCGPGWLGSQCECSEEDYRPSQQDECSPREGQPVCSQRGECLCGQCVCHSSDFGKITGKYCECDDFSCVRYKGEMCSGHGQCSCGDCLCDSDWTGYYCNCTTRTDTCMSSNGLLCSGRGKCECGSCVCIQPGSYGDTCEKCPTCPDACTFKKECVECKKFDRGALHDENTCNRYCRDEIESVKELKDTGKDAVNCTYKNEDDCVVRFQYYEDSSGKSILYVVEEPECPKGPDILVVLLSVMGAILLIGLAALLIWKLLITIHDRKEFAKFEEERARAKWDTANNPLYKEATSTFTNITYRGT
T2 sequence (P06756 31-889 limits assumed): as the sequence (P06756 31-889 limits assumed) above
T2 sequence (P06756 891-1048 partner limits assumed): as the sequence (P06756 891-1048 partner limits assumed) above
T2 sequence (P18084 24-799): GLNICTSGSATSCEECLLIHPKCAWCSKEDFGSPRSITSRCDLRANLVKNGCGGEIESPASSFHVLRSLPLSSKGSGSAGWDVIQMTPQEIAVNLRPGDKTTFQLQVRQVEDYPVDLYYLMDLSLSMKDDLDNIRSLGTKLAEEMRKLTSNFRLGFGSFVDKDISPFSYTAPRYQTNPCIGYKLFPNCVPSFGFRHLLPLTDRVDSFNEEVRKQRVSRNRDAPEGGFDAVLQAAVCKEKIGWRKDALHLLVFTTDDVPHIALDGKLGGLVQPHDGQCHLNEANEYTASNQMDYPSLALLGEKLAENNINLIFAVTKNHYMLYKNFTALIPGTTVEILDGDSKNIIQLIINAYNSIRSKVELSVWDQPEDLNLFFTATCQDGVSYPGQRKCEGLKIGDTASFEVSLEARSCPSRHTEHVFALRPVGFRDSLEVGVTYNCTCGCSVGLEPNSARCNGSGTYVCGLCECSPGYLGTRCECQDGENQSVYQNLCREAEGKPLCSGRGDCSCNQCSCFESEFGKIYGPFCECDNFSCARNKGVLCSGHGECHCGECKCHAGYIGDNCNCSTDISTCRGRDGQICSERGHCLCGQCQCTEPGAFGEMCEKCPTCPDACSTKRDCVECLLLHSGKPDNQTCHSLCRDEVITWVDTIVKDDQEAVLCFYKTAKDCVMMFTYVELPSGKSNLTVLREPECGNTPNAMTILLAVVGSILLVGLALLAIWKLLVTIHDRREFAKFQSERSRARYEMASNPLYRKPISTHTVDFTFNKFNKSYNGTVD

Structure (SMILES) | IC50 (Human αvβ3) [nM] | IC50 (human purified αVβ5) [nM] | IC50 (Human αvβ3; inhibition of 2 nM vitronectin binding to immobilized αvβ3) [nM] | Antagonist activity αVβ3, % @ 50 μM (Human αvβ3)
O=C(O)CC1c2ccccc2C2CN(C(=O)CCCc3ccc4c(n3)NCCC4)CCC12 (racemic) [Cpd 3] | 85 ± 8 | 230 ± 40 |  | 
O=C(O)CC1c2ccccc2C2CN(C(=O)CCc3ccc4c(n3)NCCC4)CCC12 (racemic) [Cpd 4] | 87 | 189 |  | 
O=C(O)CC1c2ccccc2C2CCN(C(=O)CCc3ccc4c(n3)NCCC4)CC21 (racemic) [Cpd 11] | > 1 |  |  | 
O=C(O)CC1c2ccccc2C2CN(C(=O)CCc3ccc4c(n3)NCCC4)CC12 (racemic) [Cpd 12] | 26 ± 8 | 15 ± 2 |  | 
O=C(O)CC1c2ccccc2C2CN(C(=O)CCCc3ccc4c(n3)NCCC4)CC12 (racemic) [Cpd 15] | 411 | 538 |  | 
O=C(O)C[C@@H]1c2ccccc2[C@@H]2CN(C(=O)Cc3cccc(NC4=NCCCN4)c3)CC[C@H]12 (single isomer, unassigned) [Cpd 1, (3-{2-[3-(1,4,5,6,-Tetrahydro-pyrimidin-2-ylamino)-phenyl]-acetyl}-2,3,4,4a,9,9a-hexahydro-1H-3-aza-fluoren-9-yl)-acetic acid] | 66 ± 6 | 1020 ± 180 |  | 
O=C(O)C[C@H]1c2ccccc2[C@@H]2CN(C(=O)Cc3cccc(NC4=NCCCN4)c3)CC[C@H]12 (single isomer, unassigned) [Cpd 2, (3-{2-[3-(1,4,5,6,-Tetrahydro-pyrimidin-2-ylamino)-phenyl]-acetyl}-2,3,4,4a,9,9a-hexahydro-1H-3-aza-fluoren-9-yl)-acetic acid] | 126 ± 40 | 217 ± 5 |  | 
O=C(O)CC1c2ccccc2C2CN(C(=O)CCc3ccc4c(n3)NCCC4)CC12 (single isomer, unassigned) [Cpd 13, [2-(3-5,6,7,8-Tetrahydro-[1,8]naphthyrin-2-yl-propionyl)-1,2,3,3a,8,8a-hexahydro-2-aza-cyclopenta[a]inden-8-yl]-acetic acid] | 290 ± 90 | 260 ± 60 |  | 
O=C(O)CC1c2ccccc2C2CN(C(=O)CCCNc3ccccn3)CCC12 (stereo not drawn) [Cpd 6, {3-[4-(Pyridin-2-ylamino)-butyryl]-2,3,4,4a,9,9a-hexahydro-1H-3-aza-fluoren-9-yl}-acetic acid] | > 1 |  |  | 
O=C(O)CC1c2ccccc2C2CN(C(=O)CCCNc3ccccn3)CCC12 (stereo not drawn) [Cpd 7, {3-[4-(Pyridin-2-ylamino)-butyryl]-2,3,4,4a,9,9a-hexahydro-1H-3-aza-fluoren-9-yl}-acetic acid] |  |  | > 1 | 
O=C(O)CC1c2ccccc2C2CCN(C(=O)CCCc3ccc4c(n3)NCCC4)CC21 (stereo not drawn) [Cpd 9, [2-(4-5,6,7,8-Tetrahydro-[1,8]naphthyridine-2-yl-butyryl)-2,3,4,4a,9,9a-hexahydro-1H-indeno[2,1-c]pyridin-9-yl]-acetic acid] |  |  |  | 41% @
O=C(O)CC1c2ccccc2C2CCN(C(=O)CCCc3ccc4c(n3)NCCC4)CC21 (stereo not drawn) [Cpd 10, [2-(4-5,6,7,8-Tetrahydro-[1,8]naphthyridine-2-yl-butyryl)-2,3,4,4a,9,9a-hexahydro-1H-indeno[2,1-c]pyridin-9-yl]-acetic acid] |  |  |  | 51% @ 50 μM
O=C(O)C[C@H]1c2ccccc2[C@@H]2CN(C(=O)CCc3ccc4c(n3)NCCC4)C[C@H]12 [Cpd 14, [2-(3-5,6,7,8-Tetrahydro-[1,8]naphthyrin-2-yl-propionyl)-1,2,3,3a,8,8a-hexahydro-2-aza-cyclopenta[a]inden-8-yl]-acetic acid] | 17 ± 3 | 5.8 ± 1.2 |  | 
